Experimental findings from patent US20250201957A1, “SEPARATION RECOVERY METHOD OF METAL IONS AND ACIDIC METAL EXTRACTANT” (FUJIFILM Corporation, priority 2022, published 2025) are described below.

Read-outs that look alike come from different tables or passages of the source.

The series can be described thus: pKa of metal extractant by neutralization titration. The series is classed as physicochemical. From the text:
The acidic metal extractant includes two or more coordinating functional groups, and at least one of the coordinating functional groups includes a carboxy group or each of acidic coordinating functional groups where one of R^C's represents a hydrogen atom. In the present invention, the acidic metal extractant is an acidic metal extractant for dissociating hydrogen ions (H^+) and can be defined by an acid dissociation constant pKa. For example, an acidic metal extractant having pkA of 0.1 to 12 is preferable, an acidic metal extractant having pkA of 0.5 to 12 is more preferable, and an acidic metal extractant having pkA of 1 to 8 is still more preferable. In the present invention, the pKa is a value measured by neutralization titration.
Regarding the synthesized or prepared acidic metal extractant, the molecular weight and the pKa calculated using the above-described method are shown in Table 1-2.

Broadly, the pKa is the negative logarithm of the acid dissociation constant. In the case of `CCCCC(CC)COP(=O)(O)CCCP(=O)(O)OCC(CC)CCCC` (stereo not shown) [E-1], the pKa (read-out: pKa) came out at 1.1.

As for `CCCCC(CC)COP(=O)(O)CP(=O)(O)OCC(CC)CCCC` (stereo not shown) [E-2], the pKa (read-out: pKa) amounted to 0.8.

As to `CCCCC(CC)COP(=O)(O)CP(=O)(OCC)OCC(CC)CCCC` (stereo not shown) [E-3], the pKa (read-out: pKa) was found to be 2.1.

On to `CCCCC(CC)CC(CC(CC)CCCC)(C(=O)O)C(=O)O` (stereo not shown) [E-4], for which the pKa (read-out: pKa) was found to be 6.5.

On to `CCCCC(CC)COP(=O)(O)CCP(=O)(O)OCC(CC)CCCC` (stereo not shown) [E-5], for which the pKa (read-out: pKa) came out at 0.9.

With `CCCCCCCCOP(=S)(S)CP(=S)(S)OCCCCCCCC` (stereo not shown) [E-6], the pKa (read-out: pKa) worked out at 0.3.

`CCCCC(CC)COP(=O)(CP(=O)(OCC)OCC(CC)CCCC)OCC` (stereo not shown) [E-7]: the pKa result is “None”.

`CCCCC(CC)COP(=O)(O)C(C)(O)P(=O)(O)OCC(CC)CCCC` (stereo not shown) [E-8]: the pKa (read-out: pKa) was 1.1.

Regarding `CCCCC(CC)COP(=O)(O)CC(CC)CCCC` (stereo not shown) [PC-88A, mono-2-ethylhexyl (2-Ethylhexyl)phosphonate, reference compound], the pKa (read-out: pKa) was 4.6.

For the molecule “Versatic acid 10 [VA-10, reference compound]”, the pKa turned out to be 7.9.
